Test results as given in publication PMC5354814, “In silico and in vitro drug screening identifies new therapeutic approaches for Ewing sarcoma” (Oncotarget, 2016).

Legend:
Experiment in all cases: Hits validation, dose-response cell proliferation (CellTiter-Glo)
Type in all cases: cell-based
[1] = system: Hs 919.T.; conditions: control cell line, 12-point dose-response, mean ± SD
Experimental: These drugs were chosen based on their known mechanisms and safety profiles. We also tested the synergy between these drug hits (Supplementary Figures S6–S11). […] We evaluated the anti-proliferation effect in combination treatments using the EWS and control cell lines.
(§1) For hits validation and combination study, cells were harvested and aliquoted into 384-well plates at concentrations of 750–1,500 cells per well in a total of 20 μl/well using a Matrix Wellmate (Thermo Scientific). Five μl of culture media containing either vehicles or drug were added to each well the next day (drug concentrations range from 1 nmol/L to 50 μmol/L). For combination study, selected drugs were archived in robotically accessible plates, to which media was added in preparation for addition to master plates by a Nimbus 96 liquid-dispensing workstation (Hamilton). Liquid transfers to dilution and assay plates were handled using the same workstation. Each 384-well master plate contained four 9 by 9 dose-matrix blocks, with eight serial two-fold dilutions (concentrations range from 7.8 nmol/L to 1 μmol/L). Additional wells were reserved for untreated, and vehicle-treated control wells. Cell proliferation was evaluated using Cell-Titer Glo® reagents (Promega). IC50 values were determined for each drug using SigmaPlot (Systat Software). The combination index values were calculated using SigmaPlot (Systat Software) and CompuSyn.

[2] = system: SK-ES-1; conditions: 12-point dose-response 50 μmol/L to 1 nmol/L, mean ± SD
Experimental: as §1

[3] = system: CHLA-258; conditions: 12-point dose-response 50 μmol/L to 1 nmol/L, mean ± SD
Experimental: as §1

[4] = system: TC-71; conditions: 12-point dose-response 50 μmol/L to 1 nmol/L, mean ± SD
Experimental: as §1

[5] = system: A673; conditions: 12-point dose-response 50 μmol/L to 1 nmol/L, mean ± SD
Experimental: as §1

[6] = system: RD-ES; conditions: 12-point dose-response 50 μmol/L to 1 nmol/L, mean ± SD
Experimental: as §1

[7] = system: Hs 863.T.; conditions: control cell line, 12-point dose-response, mean ± SD
Experimental: as §1

[8] = system: Hs 822.T.; conditions: control cell line, 12-point dose-response, mean ± SD
Experimental: as §1

[9] = system: COG-E-352; conditions: 12-point dose-response 50 μmol/L to 1 nmol/L, mean ± SD
Experimental: as §1

COc1cc2nc(N(C)CCCNC(=O)C3CCCO3)nc(N)c2cc1OC (stereo not drawn) [Alfuzosin]
IC50 [1]: > 50 µM | IC50 ([2]; Homo sapiens, SK-ES1): > 50 µM | IC50 [3]: > 50 µM | IC50 ([4]; TC-71): > 50 µM | IC50 ([5]; Homo sapiens, A673): > 50 µM | IC50 ([6]; RD-ES): > 50 µM | IC50 [7]: > 50 µM | IC50 [8]: > 50 µM | IC50 [9]: > 50 µM

COc1ccc(C[C@H]2NC[C@H](O)[C@H]2OC(C)=O)cc1 [Anisomycin]
IC50 [1]: 0.15 ± 0.02 µM | IC50 [2]: 0.2 ± 0.01 µM | IC50 [3]: 0.08 ± 0.01 µM | IC50 [4]: 0.04 ± 0.01 µM | IC50 [5]: 0.12 ± 0.01 µM | IC50 [6]: 0.15 ± 0.02 µM | IC50 [7]: 0.2 ± 0.01 µM | IC50 [8]: 0.15 ± 0.05 µM | IC50 [9]: 0.02 ± 0.01 µM

CC(C)C[C@H](NC(=O)[C@H](Cc1ccccc1)NC(=O)c1cnccn1)B(O)O [Bortezomib]
IC50 [1]: 0.17 ± 0.003 µM | IC50 ([2]; Homo sapiens, SK-ES1): 0.02 ± 0.002 µM | IC50 [3]: 0.007 µM | IC50 ([4]; TC-71): 0.005 ± 0.0081 µM | IC50 ([5]; Homo sapiens, A673): 0.01 ± 0.003 µM | IC50 ([6]; RD-ES): 0.01 ± 0.001 µM | IC50 [7]: 0.18 ± 0.03 µM | IC50 [8]: 0.45 ± 0.08 µM | IC50 [9]: 0.005 µM

CN(C)CCCN1c2ccccc2Sc2ccc(Cl)cc21 [Chlorpromazine]
IC50 [1]: 15.5 ± 2.09 µM | IC50 ([2]; Homo sapiens, SK-ES1): > 25 µM | IC50 [3]: 15.3 ± 4.55 µM | IC50 ([4]; TC-71): 17.6 ± 8.63 µM | IC50 ([5]; Homo sapiens, A673): 10.6 ± 2.15 µM | IC50 ([6]; RD-ES): > 25 µM | IC50 [7]: 18.4 ± 3.07 µM | IC50 [8]: 16.8 ± 3.22 µM | IC50 [9]: 16.1 ± 2.29 µM

COc1cccc2c1C(=O)c1c(O)c3c(c(O)c1C2=O)C[C@@](O)(C(C)=O)C[C@@H]3O[C@H]1C[C@H](N)[C@H](O)[C@H](C)O1 [Daunorubicin]
IC50 [1]: 0.42 ± 0.15 µM | IC50 ([2]; Homo sapiens, SK-ES1): 0.04 ± 0.03 µM | IC50 [3]: < 0.003 µM | IC50 ([4]; TC-71): 0.0046 ± 0.0004 µM | IC50 ([5]; Homo sapiens, A673): 0.05 ± 0.02 µM | IC50 ([6]; RD-ES): 0.05 ± 0.03 µM | IC50 [7]: 0.18 ± 0.08 µM | IC50 [8]: 0.15 ± 0.12 µM | IC50 [9]: < 0.003 µM

COc1cc2nc(N3CCN(C(=O)C4COc5ccccc5O4)CC3)nc(N)c2cc1OC (stereo not drawn) [Doxazosin]
IC50 [1]: 18.5 ± 3.27 µM | IC50 ([2]; Homo sapiens, SK-ES1): 20.4 ± 5.87 µM | IC50 [3]: 16.1 ± 6.78 µM | IC50 ([4]; TC-71): 22.5 ± 9.35 µM | IC50 ([5]; Homo sapiens, A673): 5.6 ± 1.52 µM | IC50 ([6]; RD-ES): > 25 µM | IC50 [7]: 14.6 ± 3.02 µM | IC50 [8]: 15.7 ± 2.12 µM | IC50 [9]: 17.1 ± 6.58 µM

COc1c2ccoc2nc2c(OC)c(OCC(O)C(C)(C)O)ccc12 (stereo not drawn) [Evoxine]
IC50 [1]: > 50 µM | IC50 ([2]; Homo sapiens, SK-ES1): > 50 µM | IC50 [3]: > 50 µM | IC50 ([4]; TC-71): > 50 µM | IC50 ([5]; Homo sapiens, A673): > 50 µM | IC50 ([6]; RD-ES): > 50 µM | IC50 [7]: > 50 µM | IC50 [8]: > 50 µM | IC50 [9]: > 50 µM

O=C(O)CCC(=O)c1ccc(-c2ccccc2)cc1 [Fenbufen]
IC50 [1]: > 50 µM | IC50 ([2]; Homo sapiens, SK-ES1): > 50 µM | IC50 [3]: > 50 µM | IC50 ([4]; TC-71): > 50 µM | IC50 ([5]; Homo sapiens, A673): > 50 µM | IC50 ([6]; RD-ES): > 50 µM | IC50 [7]: > 50 µM | IC50 [8]: > 50 µM | IC50 [9]: > 50 µM

OCCN1CCN(CCCN2c3ccccc3Sc3ccc(C(F)(F)F)cc32)CC1 [Fluphenzaine]
IC50 [1]: 15.5 ± 3.68 µM | IC50 [2]: 16.3 ± 3.66 µM | IC50 [3]: 19 ± 6.79 µM | IC50 [4]: 17 ± 6.68 µM | IC50 [5]: 10.5 ± 2.89 µM | IC50 [6]: 14.3 ± 3.21 µM | IC50 [7]: 20.5 ± 2.88 µM | IC50 [8]: 22.7 ± 7.23 µM | IC50 [9]: 16.1 ± 7.51 µM

COC1=C2C[C@@H](C)C[C@H](OC)[C@H](O)[C@@H](C)/C=C(\C)[C@H](OC(N)=O)[C@@H](OC)/C=C\C=C(/C)C(=O)NC(=CC1=O)C2=O [Geldanamycin]
IC50 [1]: > 20 µM | IC50 ([2]; Homo sapiens, SK-ES1): 0.03 ± 0.002 µM | IC50 [3]: < 0.003 µM | IC50 ([4]; TC-71): < 0.003 µM | IC50 ([5]; Homo sapiens, A673): 1.93 ± 0.05 µM | IC50 ([6]; RD-ES): 0.05 ± 0.003 µM | IC50 [7]: > 20 µM | IC50 [8]: > 20 µM | IC50 [9]: < 0.003 µM

c1coc(CNc2ncnc3[nH]cnc23)c1 [Kinetin]
IC50 [1]: > 50 µM | IC50 ([2]; Homo sapiens, SK-ES1): > 50 µM | IC50 [3]: > 50 µM | IC50 ([4]; TC-71): > 50 µM | IC50 ([5]; Homo sapiens, A673): > 50 µM | IC50 ([6]; RD-ES): > 50 µM | IC50 [7]: > 50 µM | IC50 [8]: > 50 µM | IC50 [9]: > 50 µM

CN1C[C@H](CO)C=C2c3cccc4[nH]cc(c34)C[C@H]21 [Lysergol]
IC50 [1]: > 50 µM | IC50 [2]: > 50 µM | IC50 [3]: > 50 µM | IC50 [4]: > 50 µM | IC50 [5]: > 50 µM | IC50 [6]: > 50 µM | IC50 [7]: > 50 µM | IC50 [8]: > 50 µM | IC50 [9]: > 50 µM

Nc1ccccc1NC(=O)c1ccc(CNC(=O)OCc2cccnc2)cc1 [MS275]
IC50 [1]: > 50 µM | IC50 ([2]; Homo sapiens, SK-ES1): 2.4 ± 1.01 µM | IC50 [3]: 0.15 ± 0.03 µM | IC50 ([4]; TC-71): 1.53 ± 0.49 µM | IC50 ([5]; Homo sapiens, A673): 2.5 ± 1.02 µM | IC50 ([6]; RD-ES): 2 ± 0.85 µM | IC50 [7]: > 25 µM | IC50 [8]: > 25 µM | IC50 [9]: 1.47 ± 0.54 µM
